“Also recorded” adds a separate entry of the source.
Key:
[1] = system: Patients with Moderate to Severe Diabetic Foot Infection; assay: Phase 1b/2a study of topical BisEDT: wound surface area by 3D digital photographs (Example 6); type: in vivo, human; conditions: end of treatment, test of cure and end of study
Procedure: Adjunctive local administration of BisEDT was tested for its efficacy in resolving both infection and critical colonization, thereby removing these barriers to wound repair and closure. This represents a fundamental, clinically meaningful benefit.
Topical BisEDT suspension and placebo were used in combination with SOC systemic antibiotics (such as levofloxacin) for a duration of 2-3 weeks. […] BisEDT, when used in conjunction with systemic antibiotics, for a duration of […] (3× per week) may be beneficial in resolving both infection and critical colonization, therefore enabling wound repair and closure, a fundamental, clinically meaningful benefit.

[2] = Phase 1b/2a DFI study (Example 7): safety and tolerability; type: in vivo, human
From the text: The primary objective of Part 1 of this study and the planned primary objective of Part 2 of this study was to evaluate the safety and tolerability of topically administered BisEDT composition as adjunct to standard of care (including systemic antibiotic therapy) in subjects with a moderate to severe DFI. The secondary objectives of Part 1 of this study and the planned secondary objectives of Part 2 of this study were: To evaluate the effect of adjunctive BisEDT composition on resolution of infection; To evaluate the effect of adjunctive BisEDT composition on eradication of pathogens; To evaluate the effect of BisEDT composition on eradication of biofilms; To evaluate the effect of BisEDT composition on wound healing; To evaluate the effect of BisEDT composition for the prevention of lower extremity amputations; To evaluate the effect of BisEDT composition for the prevention of infection related surgery; To evaluate the effect of BisEDT composition on duration of systemic antibiotic use; To evaluate the effect of BisEDT composition on length of hospital stay; To evaluate the systemic absorption and pharmacokinetics of topically administered BisEDT composition.

[3] = system: subjects with a moderate to severe DFI; assay: Phase 1b/2a DFI study (Example 7): biofilm score; type: in vivo, human; conditions: ME Population, BisEDT dose groups vs placebo
From the text: Biofilm Response: The distribution of absolute scores at the EOT and TOC visits are descriptively summarized using counts and percentages by treatment group. Treatments were compared using the Cochran Mantel Haenszel mean score test statistic, and the p-value is presented. Additionally, shift tables showing individual subject changes from baseline to EOT and TOC visits are presented. Analyses are presented for the ME Population.
Biofilm response: The following categories were used: score 0, no bacteria observed; 1, single individual cells; 2, small micro-colonies (˜10 cells); 3, large micro-colonies (˜100 cells); 4, continuous film; 5, thick continuous film. Subjects with no debridement material as a result of their DFI healing were given a score of 0. The distribution of absolute scores at the EOT and TOC visits are descriptively summarized using counts and percentages by treatment group. Treatments were compared using the Cochran Mantel Haenszel mean score test statistic, and the p-value is presented. Additionally, a shift table showing individual subject changes from baseline to EOT and TOC visits is presented. Analyses are presented for the ME Population.

[4] = Phase 1b/2a DFI study (Example 7): pharmacokinetic evaluation, blood concentration of bismuth; type: in vivo, human; conditions: topical BisEDT 3, 7.5, 15 μg/cm^2; whole blood concentrations
Procedure: The primary objective of Part 1 of this study and the planned primary objective of Part 2 of this study was to evaluate the safety and tolerability of topically administered BisEDT composition as adjunct to standard of care (including systemic antibiotic therapy) in subjects with a moderate to severe DFI. […]
The mean bismuth concentration by day for the PK Concentration Population included: 8 subjects on Day 1 predose (only 2 subjects with detectable levels of 0.582 and 0.548 ng/mL, hypothesized to be from undisclosed use of bismuth containing medications or from dressings containing bismuth, such as Xeroform®, as blood was collected before treatment with BisEDT); 8 subjects on Day 3 predose (only 1 subject with a detectable level of 0.525 ng/mL); 8 subjects on Day 5 predose (only 1 subject with a detectable level of 0.701 ng/mL); and 8 subjects on Day 8 predose (only 1 subject with a detectable level of 0.513 ng/mL). […] Bismuth levels were not measured in samples that were erroneously processed to plasma by the 1 site that enrolled the majority of the subjects in the PK study, as bismuth levels are expected to be 15 to 20 times lower in plasma samples compared to whole blood samples and would be well below the lower limit of quantitation for the assay method; no PK parameters were calculated.

[5] = system: subjects with a moderate to severe DFI; assay: Phase 1b/2a DFI study (Example 7): clinical response; type: in vivo, human; conditions: MITT Population, BisEDT dose groups vs placebo
Procedure: Methodology: This was a randomized, double-blind, placebo-controlled, multicenter study that was planned to be conducted in 2 parts. In Part 1, subjects were enrolled into escalating dose cohorts (BisEDT at concentrations of 150, 375, and 750 μg/mL resulting in doses of 3, 7.5, and 15 μg/cm^2) (N=16 per cohort) at a ratio of 3:1 (BisEDT to placebo).
In Part 1, subjects received either topical application of BisEDT or topical application of placebo, applied directly to the infected ulcer, 3 times per week, for a minimum of 2 weeks (ie, 6 doses) and up to a maximum of 3 weeks (ie, 9 doses). […] The determination to stop topical BisEDT therapy after a minimum of 2 weeks (ie, 6 doses) was at the discretion of the Principal Investigator and based on the resolution of clinical findings of infection.
Efficacy: The following clinical and microbiological efficacy outcomes were assessed: • Proportion of subjects with a clinical cure of infection 2 weeks following the end of dosing, TOC with BisEDT or placebo. […]
At the TOC, EOT, and EOS visits, the cure rate (cured vs not cured) was analyzed using an Exact Logistic Regression model with covariates for treatment dose group, the 8-item baseline wound score, and the interaction of treatment group and baseline wound score. […]

[6] = system: Staphylococcus aureus (S. aureus); assay: Staphylococcus aureus mouse model: efficacy of BisEDT on spleen and wound titer (Example 4); type: in vivo
Procedure: Establishment of Mouse Model: A luminescent strain of Staphylococcus aureus (S. aureus) was administered intravenously to adult, female, Swiss Webster mice and 48 hours was allowed for a biofilm to form. Mice were treated daily intravenously with 100 μL of serial dilutions of BisEDT. In this example, BisEDT was used as a suspension (w:v) (e.g. 150, 375, or 750 μg/mL) of drug particles in diluent, which is composed of 3% methylcellulose/0.5% polysorbate 80/10 mM sodium chloride/10 mM sodium phosphate, pH 7.4.
Imaging Studies: Mice were imaged using Silhouette to determine wound size and volume, and In Vivo Imaging Systems (IVIS) Lumina X5 to quantitate bioluminescence.
Terminal colony forming units (CFU) were determined by plating homogenized tissue from the wound bed and in the spleen. Mice were euthanized and wound tissue and spleens were harvested. Tissue samples were weighed and placed into microtubes containing sterile phosphate buffer and homogenized. The homogenate was then serially diluted and plated to determine CFU/g tissue.
An initial study evaluated the effect of BisEDT suspension on CFUs in the spleen and wound bed. The study occurred over 11 days with 9 days of treatment. The BisEDT suspension was administered to 30 (n=5 mice/group) mice at concentrations of 2500, 250, 25, 2.5, 0.25, 0.25, 0.025 μg/mL. A comparator control was vehicle, or diluent, and 50% DMSO in PBS.
A subsequent study evaluated the effect of higher concentrations of BisEDT suspension on CFUs in the spleen and wound bed. The study occurred over 12 days with 10 days of treatment. BisEDT suspension was administered to 20 (n=5 mice/group) at concentrations of 10, 5, 2.5, and 0.75 mg/mL. A negative control was mice that were untreated, and a positive control was mice that were treated with Prontosan. […] Complete inhibition was observed compared to the untreated control (FIG. 3). Further, treatment with 5 mg/mL BisEDT reduced CFUs by 1.5-2 logs, greater than the positive prontosan control.

[7] = system: subjects with a moderate to severe DFI; assay: Phase 1b/2a DFI study (Example 7): microbiological response, colonization, reinfection, relapse; type: in vivo, human
Procedure: Efficacy: The following clinical and microbiological efficacy outcomes were assessed: • Proportion of subjects with a clinical cure of infection 2 weeks following the end of dosing, TOC with BisEDT or placebo. Subjects were classified into one of the following groups: cured (resolution of all clinical signs and symptoms of infection or sufficient improvement such that additional antimicrobial therapy was not required), failure (insufficient resolution of at least one of the initial signs and symptoms of infection, or the need for any additional or alternative antimicrobial therapy, or the need for surgical treatment of the infection), or indeterminate (assessment not possible for any reason). • Proportion of subjects with a clinical cure at EOT with BisEDT or placebo. • Proportion of subjects with a confirmed or presumed microbiological cure 2 weeks following the end of dosing, TOC. Subjects were classified into one of the following groups: confirmed eradication (all of the original pathogens were absent), presumed eradication (there was no available material for culture but the infection clinically responded to treatment), persistence (presence of a pathogen isolated at baseline), or indeterminate (inability to determine microbiological response). • Proportion of subjects with a confirmed or presumed microbiological cure at the EOT and EOS. At the EOS visit, additional classification groups included: colonization (isolation of a new organism that was not present on the initial culture but the wound was not clinically infected); reinfection (isolation of a new organism that was not present on the initial culture and the wound was clinically infected) or relapse (the same organism that was present on the initial culture was again isolated, after an intervening confirmed [sterile culture] or presumed [no material to culture] microbiological response and the wound was clinically infected). • Change from baseline in the Biofilm Score at EOT and TOC. • Proportion of subjects that underwent lower-extremity amputation involving the infected foot. • Proportion of subjects needing any infection-related surgery (ie, lower-extremity amputation, incision and drainage of a new abscess, or soft tissue or bone resection) after treatment had started. • Change from baseline in the 8-item DFI wound score at EOT, TOC, and EOS. • Percent reduction in ulcer size at EOS and each study visit.
Microbiological Response: The distribution of microbiological response outcome categories (confirmed eradication, presumed eradication, persistence, and indeterminate) are descriptively summarized by treatment group using counts and percentages at the TOC, EOT, and EOS visits. The eradication rate (confirmed+presumed vs the rest) was analyzed using the same methodology as clinical response. Analyses are presented for the ME Population.
Colonization, Reinfection, and Relapse: At the EOS visit, the number and percentage of subjects with a colonization, reinfection, or relapse are tabulated by treatment group for the ME Population.
Microbiologic assessment. Cultures were collected at baseline and as needed for the treatment of the subject. Tissue samples were shipped to a central laboratory where the presence of viable microorganisms was determined by standard microbiological culture methods and included speciation. […] The susceptibility of bacterial isolates to BisEDT was also determined, but was not reported to investigators.

[8] = Particle size of microparticulate BisEDT, Nanosizer/Zetasizer Nano-S (Example 1); type: physicochemical; conditions: resuspended in 2% Pluronic F-68, sonicated
Procedure: The dried particulate matter was characterized to assess the particle size properties. Briefly, microparticles were resuspended in 2% Pluronic® F-68 (BASF, Mt. Olive, NJ) and the suspension was sonicated for 10 minutes in a water bath sonicator at standard setting prior to analysis using a Nanosizer/Zetasizer Nano-S particle analyzer (model ZEN1600 (without zeta-potential measuring capacity), Malvern Instruments, Worcestershire, UK) according to the manufacturer's recommendations.

[9] = topical doses of 3, 7.5, and 15 μg/cm^2
[10] = EOS visit, ME Population, BisEDT dose groups vs placebo

With C1C[S][Bi]([S]CC[S][Bi]2[S]CC[S]2)[S]1 [BisEDT, bismuth-1,2-ethanedithiol] the “proportion of subjects with >50% reduction in wound surface area from baseline, compared to placebo” value [1] was “larger proportion”, the “TEAEs and SAEs related to study drug” value [2, 9] was “None of the TEAEs and SAEs occurring in the study were considered related to study drug” and the safety signals [2, 9] was “No safety signals were identified”. The safety and tolerability ([2]; topical doses of 3, 7.5, and 15 μg/cm^2, 3 times per week, 2-3 weeks) was “safe and well tolerated”, the “biofilm response, comparison of treatment groups” value ([3]; EOT visit) was “No difference in biofilm response at the EOT visit between treatment groups was observed” and the “biofilm response, comparison of treatment groups” value ([3]; TOC visit) was “No difference in biofilm response at the TOC visit between treatment groups was observed”. The systemic exposure [4] was “very little systemic exposure; also recorded: does not appear to exhibit any relevant systemic exposure; also recorded: limited systemic exposure”, the “clinical response, comparison of treatment groups” value ([5]; EOT visit) was “No difference between treatment groups was observed” and the “clinical response, comparison of treatment groups” value ([5]; TOC visit) was “No difference between treatment groups was observed”. For the same molecule, the “mice exhibiting no infection (spleen)” value ([6]; 2.5 mg/mL BisEDT (FIG. 4)) was “three”, the “reduction of wound titer compared to diluent” value ([6]; 2500 μg/mL BisEDT suspension, mice, 9 days of treatment (FIG. 1)) was “approximately five” and the “reduction of CFU compared to untreated control” value ([6]; 10 mg/mL BisEDT, mice, 10 days of treatment, complete inhibition (FIG. 3)) was “more than eight”. The “colonization, reinfection, and relapse, comparison of treatment groups” value [7, 10] was “No difference between treatment groups was observed”, the “microbiological response, comparison of treatment groups” value (from here on “microbiological response, comparison”) [7, 10] was “No difference between treatment groups was observed” and the “microbiological response, comparison” value ([7]; EOT visit, ME Population, BisEDT dose groups vs placebo) was “No difference between treatment groups was observed”. The “microbiological response, comparison” value ([7]; TOC visit, ME Population, BisEDT dose groups vs placebo) was “No difference between treatment groups was observed”, the “reduction of reinfection or relapse with BisEDT compared to placebo” value ([7]; all dose groups combined 12.5% vs placebo 33.3%, EOS visit) was “approximately one-third” and the “peak VMD” value [8] was “about 1.3 microns”.
